Experimental data published in patent publication US10780074B2, “Compounds and uses thereof” (Sunovion Pharmaceuticals Inc., priority 2017, dated 2020).
Where a name gives a salt, the structure may show the parent alone.

Test system: behaviors of compound-treated mice
Experiment: Neuropharmacological Assay (SmartCube)
Format: in vivo
Conditions: for minimal effective dose: Mus musculus, ip, 0.25 h, dose having 50% or more total activity in SmartCube, i.p., read-out: MED (minimal effective dose); for AD: ADHD (probability that activity matches class) / AG: analgesic (probability that activity matches class) / AX: anxiolytic (probability that activity matches class) / CE: cognitive enhancer (probability that activity matches class) / DP: anti-depressant (probability that activity matches class) / MS: mood stabilizer (probability that activity matches class) / PS: anti-psychotic (probability that activity matches class) / SD: sedative hypnotic (probability that activity matches class) / UN: uncharacterized CNS activity (probability that activity matches class): i.p. 15 min before behavioral test, most efficacious dose(s) of 3 doses
Procedure, shortened: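 Mice dosed i.p. 15 min before testing, with compound in N-methyl-2-pyrrolidone/PEG/propylene glycol, were video-recorded and algorithmically compared with reference-drug behavioral signatures. This gave class-match probabilities (antidepressant, anxiolytic, etc.) at the most efficacious of 3 doses. MED was defined as the dose with ≥50% total activity, usually tested across 0.3–30 mpk.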

Row | SMILES | minimal effective dose [mg/kg] | AD: ADHD (probability that activity matches class) | AG: analgesic (probability that activity matches class) | AX: anxiolytic (probability that activity matches class) | CE: cognitive enhancer (probability that activity matches class) | DP: anti-depressant (probability that activity matches class) | MS: mood stabilizer (probability that activity matches class) | PS: anti-psychotic (probability that activity matches class) | SD: sedative hypnotic (probability that activity matches class) | UN: uncharacterized CNS activity (probability that activity matches class)
1 | NC[C@@H]1OCCc2c(-c3cocn3)cccc21 [Compound 100, (R)-(5-(oxazol-4-yl)isochroman-1-yl)methanamine HCl salt] | 3 to 10 | + (LOQ ≤ + <5%) | + (LOQ ≤ + <5%) | ++ (5% ≤ ++ <25%) | + (LOQ ≤ + <5%) | + (LOQ ≤ + <5%) | + (LOQ ≤ + <5%) | + (LOQ ≤ + <5%) | + (LOQ ≤ + <5%) | ++++ (50% ≤ ++++)
2 | NC[C@H]1OCCc2cccc(-c3cccnc3)c21 (single isomer, unassigned) [Compound 10, hydrochloride] | 10 to 30 | + (LOQ ≤ + <5%) | +++ (25% ≤ +++ <50%) | + (LOQ ≤ + <5%) | + (LOQ ≤ + <5%) | ++ (5% ≤ ++ <25%) | + (LOQ ≤ + <5%) | + (LOQ ≤ + <5%) | + (LOQ ≤ + <5%) | + (LOQ ≤ + <5%)
3 | NCC1OCCc2c(-c3ccnnc3)cccc21 (centres unmarked) [Compound 61, (5-(Pyridazin-4-yl)isochroman-1-yl)methanamine hydrochloride salt] | 10 to 30 | + (LOQ ≤ + <5%) | + (LOQ ≤ + <5%) | ++ (5% ≤ ++ <25%) | + (LOQ ≤ + <5%) | ++ (5% ≤ ++ <25%) | + (LOQ ≤ + <5%) | + (LOQ ≤ + <5%) | + (LOQ ≤ + <5%) | ++++ (50% ≤ ++++)
4 | NC[C@H]1OCCc2c(-c3ccnnc3)cccc21 (single isomer, unassigned) [Compound 79, hydrochloride salt] | 3 to 10 | + (LOQ ≤ + <5%) | + (LOQ ≤ + <5%) | + (LOQ ≤ + <5%) | + (LOQ ≤ + <5%) | ++ (5% ≤ ++ <25%) | + (LOQ ≤ + <5%) | + (LOQ ≤ + <5%) | + (LOQ ≤ + <5%) | + (LOQ ≤ + <5%)
5 | CNC[C@@H]1OCCc2c(-c3cccnc3)cccc21 (single isomer, unassigned) [Compound 7, bis-hydrochloride] | 10 to 30 | ++ (5% ≤ ++ <25%) | + (LOQ ≤ + <5%) | ++ (5% ≤ ++ <25%) | + (LOQ ≤ + <5%) | +++ (25% ≤ +++ <50%) | + (LOQ ≤ + <5%) | + (LOQ ≤ + <5%) | + (LOQ ≤ + <5%) | + (LOQ ≤ + <5%)
